Data set [1] concerns the target T1, Vasopressin V1a receptor (Homo sapiens, UniProt P37288).
Description: Agonist activity at human V1a receptor expressed in HEK293FT cells incubated for 30 mins by beta-arrestin recruitment assay
The nature of data set [2]: Lipophilicity, log D of the compound. Format: physicochemical. Conditions: octanol/water.
In data set [3] the test system is Mus musculus. The data set can be described thus: Improvement in social interaction in Oprm1-/- mouse model of autism spectrum disorders assessed as restoration of number of following episodes at 20 mg/kg, ip pre-treated before open-field test for 10 mins. Format: functional, organism-based.
Data set [4] has as its system Mus musculus. Kind of data set: Improvement in social interaction in Oprm1-/- mouse model of autism spectrum disorders assessed as restoration of time spent in nose contacts at 20 mg/kg, ip pre-treated before open-field test for 10 mins. Format: functional, organism-based.
Data set [5] concerns the target T2, Oxytocin receptor (Homo sapiens) (UniProt P30559).
T2 sequence (whole entry): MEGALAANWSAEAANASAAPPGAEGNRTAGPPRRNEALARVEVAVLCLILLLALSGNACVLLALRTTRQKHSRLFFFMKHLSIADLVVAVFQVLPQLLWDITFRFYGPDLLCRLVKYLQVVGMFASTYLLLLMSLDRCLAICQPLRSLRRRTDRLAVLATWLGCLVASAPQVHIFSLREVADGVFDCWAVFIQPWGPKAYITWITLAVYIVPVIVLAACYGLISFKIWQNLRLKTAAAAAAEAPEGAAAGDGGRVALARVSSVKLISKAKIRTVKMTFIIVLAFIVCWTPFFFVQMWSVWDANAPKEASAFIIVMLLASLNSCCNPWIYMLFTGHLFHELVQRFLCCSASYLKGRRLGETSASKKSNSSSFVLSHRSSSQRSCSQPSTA
The data set can be described thus: Agonist activity at human OTR receptor expressed in HEK293FT cells assessed as stimulation of calcium release by Aequorin based assay relative to OT. Format: functional, cell-based.

Data set [6] addresses T1, Vasopressin V1a receptor. Kind of data set: Displacement of DY647 from SNAP-tagged V1A receptor (unknown origin) expressed in HEK293 cells by TR-FRET assay. Format: cell-based. On the technique in general: In TR-FRET formats the signal depends on donor and acceptor labels being close together.
Data set [7] deals with T1, Vasopressin V1a receptor. The data set can be described thus: Antagonist activity at human V1A receptor expressed in HEK cells assessed as inhibition of AVP-induced intracellular calcium flux incubated for 45 mins by Indo1-AM dye based fluorescence assay relative to AVP. Format: functional, cell-based. For orientation: Calcium flux is commonly read through the fluorescence of an indicator in the cells.

Data set [8] concerns the target T3, Vasopressin V2 receptor (Homo sapiens, UniProt P30518). Kind of data set: Agonist activity at human V2 receptor expressed in HEK293FT cells assessed as stimulation of calcium release by Aequorin based assay. Format: functional, cell-based.
For data set [9], the target named is T4, Oxytocin receptor (Homo sapiens, UniProt P30559).
T4 sequence (P30559 whole entry): T2 sequence (whole entry)
The data set can be described thus: Displacement of DY647 from SNAP-tagged OTR receptor (unknown origin) expressed in HEK293 cells by TR-FRET assay. Format: cell-based.

For data set [10], the target named is T3, Vasopressin V2 receptor. The data set can be described thus: Agonist activity at human V2 receptor expressed in HEK293FT cells incubated for 30 mins by beta-arrestin recruitment assay relative to AVP. Format: functional, cell-based. Background: Arrestin recruitment assays detect the binding of arrestin to an activated receptor.
In data set [11] the test system is Mus musculus. The data set can be described thus: Improvement in social interaction in Oprm1-/- mouse model of autism spectrum disorders assessed as restoration of number of nose contacts at 20 mg/kg, ip pre-treated before open-field test for 10 mins. Format: functional, organism-based.
The test system of data set [12] is Mus musculus. The data set can be described thus: Improvement in social interaction in Oprm1-/- mouse model of autism spectrum disorders assessed as restoration of mean duration of nose contacts at 10 mg/kg, ip pre-treated before open-field test for 10 mins. Format: functional, organism-based.
Data set [13] concerns the target T3, Vasopressin V2 receptor. The data set can be described thus: Displacement of DY647 from SNAP-tagged V2 receptor (unknown origin) expressed in HEK293 cells by TR-FRET assay. Format: cell-based.
Data set [14] addresses T1, Vasopressin V1a receptor. Kind of data set: Antagonist activity at human V1a receptor expressed in HEK293FT cells assessed as inhibition of AVP-induced calcium release by Aequorin based assay. Format: functional, cell-based.
The test system of data set [15] is Mus musculus. Kind of data set: Improvement in social interaction in Oprm1-/- mouse model of autism spectrum disorders assessed as restoration of mean duration of nose contacts at 20 mg/kg, ip pre-treated before open-field test for 10 mins. Format: functional, organism-based.
For data set [16], the target named is T5, Vasopressin V1b receptor (Homo sapiens, UniProt P47901).
T5 sequence (P47901 whole entry): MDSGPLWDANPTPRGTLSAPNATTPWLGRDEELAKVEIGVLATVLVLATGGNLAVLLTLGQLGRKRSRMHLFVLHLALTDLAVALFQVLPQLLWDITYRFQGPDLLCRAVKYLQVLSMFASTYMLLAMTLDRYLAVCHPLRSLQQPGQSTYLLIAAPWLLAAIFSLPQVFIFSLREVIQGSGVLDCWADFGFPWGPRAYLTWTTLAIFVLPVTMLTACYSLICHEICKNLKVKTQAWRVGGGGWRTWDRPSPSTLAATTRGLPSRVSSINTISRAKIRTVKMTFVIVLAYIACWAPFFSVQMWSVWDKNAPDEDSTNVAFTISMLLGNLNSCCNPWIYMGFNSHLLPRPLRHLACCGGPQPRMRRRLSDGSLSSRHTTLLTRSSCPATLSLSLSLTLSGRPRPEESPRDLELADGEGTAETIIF
Description: Agonist activity at human V1b receptor expressed in HEK293FT cells assessed as stimulation of calcium release by Aequorin based assay

In data set [17] the target is T6, Oxytocin receptor (Mus musculus) (UniProt P97926).
T6 sequence (whole entry): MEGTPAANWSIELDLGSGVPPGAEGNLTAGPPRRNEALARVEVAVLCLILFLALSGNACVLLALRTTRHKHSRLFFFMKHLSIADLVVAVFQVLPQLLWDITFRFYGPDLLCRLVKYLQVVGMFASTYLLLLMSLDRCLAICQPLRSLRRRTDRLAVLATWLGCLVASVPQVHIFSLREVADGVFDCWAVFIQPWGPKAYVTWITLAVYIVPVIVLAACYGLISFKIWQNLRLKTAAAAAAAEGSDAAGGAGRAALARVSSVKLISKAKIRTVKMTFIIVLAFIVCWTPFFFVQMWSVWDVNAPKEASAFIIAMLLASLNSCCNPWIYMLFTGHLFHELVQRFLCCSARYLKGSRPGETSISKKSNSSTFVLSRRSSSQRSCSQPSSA
Kind of data set: Agonist activity at mouse OTR receptor expressed in HEK293FT cells assessed as stimulation of calcium release by Aequorin based assay relative to OT. Format: functional, cell-based.

The target in data set [18] is T5, Vasopressin V1b receptor. The source holds these as a separate data set.
Description: Agonist activity at human V1b receptor expressed in HEK293FT cells incubated for 30 mins by beta-arrestin recruitment assay
Data set [19] has as its target T5, Vasopressin V1b receptor. Kind of data set: Antagonist activity at human V1b receptor expressed in HEK293FT cells assessed as inhibition of AVP-induced response incubated for 30 mins by beta-arrestin recruitment assay. Format: functional, cell-based.
Data set [20] has as its target T4, Oxytocin receptor. The data set can be described thus: Agonist activity at human OTR receptor expressed in HEK293FT cells assessed as stimulation of calcium release by Aequorin based assay. Format: functional, cell-based.
Data set [21] concerns the target T1, Vasopressin V1a receptor. The source holds these as a separate data set.
Description: Agonist activity at human V1a receptor expressed in HEK293FT cells assessed as stimulation of calcium release by Aequorin based assay
Data set [22] concerns Mus musculus. Kind of data set: Effect on social interaction in Oprm1+/+ mouse model of autism spectrum disorders assessed as number of following episodes at 10 mg/kg, ip pre-treated before open-field test for 10 mins. Conditions: in vivo. Format: ADME, organism-based.
For data set [23], the system named is Mus musculus. Kind of data set: Effect on social interaction in Oprm1+/+ mouse model of autism spectrum disorders assessed as grooming episodes occurring after social contact at 10 mg/kg, ip pre-treated before open-field test for 10 mins. Format: ADME, organism-based. Conditions: in vivo.
The subject of data set [24] is Mus musculus. The data set can be described thus: Effect on social interaction in Oprm1+/+ mouse model of autism spectrum disorders assessed as number of nose contacts at 10 mg/kg, ip pre-treated before open-field test for 10 mins. Format: ADME, organism-based. The settings on record: in vivo.

Calls of active or inactive are those of the source. The rule behind the calls is not given here.

T1 sequence (P37288 whole entry): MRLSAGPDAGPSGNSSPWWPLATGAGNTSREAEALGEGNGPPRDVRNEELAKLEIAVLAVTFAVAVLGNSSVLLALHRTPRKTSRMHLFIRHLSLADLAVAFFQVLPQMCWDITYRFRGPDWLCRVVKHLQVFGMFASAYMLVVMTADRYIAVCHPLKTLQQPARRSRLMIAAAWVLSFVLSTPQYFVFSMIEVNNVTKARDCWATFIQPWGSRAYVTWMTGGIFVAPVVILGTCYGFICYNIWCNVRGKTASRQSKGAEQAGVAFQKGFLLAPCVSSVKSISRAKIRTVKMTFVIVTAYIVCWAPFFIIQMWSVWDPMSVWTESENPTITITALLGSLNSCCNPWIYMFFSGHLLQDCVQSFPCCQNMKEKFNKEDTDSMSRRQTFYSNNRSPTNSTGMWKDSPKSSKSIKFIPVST
T3 sequence (P30518 whole entry): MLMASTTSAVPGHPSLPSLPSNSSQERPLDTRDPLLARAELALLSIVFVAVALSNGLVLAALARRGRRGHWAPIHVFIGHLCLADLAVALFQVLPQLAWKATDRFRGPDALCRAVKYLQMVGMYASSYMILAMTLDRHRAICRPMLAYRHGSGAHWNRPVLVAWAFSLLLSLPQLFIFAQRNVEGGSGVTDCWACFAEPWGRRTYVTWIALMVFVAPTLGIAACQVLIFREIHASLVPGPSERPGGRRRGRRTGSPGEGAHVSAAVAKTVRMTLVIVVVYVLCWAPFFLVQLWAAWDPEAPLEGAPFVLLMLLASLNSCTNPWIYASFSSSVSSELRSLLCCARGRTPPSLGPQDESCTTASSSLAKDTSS

For orientation: IC50 means the concentration needed to halve the response being measured. For orientation: logD means lipophilicity at a set pH, counting ionised and neutral species. A lower logD goes with lower lipophilicity. One may read the Emax as the maximal effect, on the per cent scale that the assay sets. In general, Ki refers to the dissociation constant of the complex between target and ligand, obtained from inhibition or displacement. Read a low Ki as tighter binding. A word on the EC50: it is the concentration needed to bring the measured effect to its halfway point. Turning to `Cc1cc(C(=O)N2Cc3cnn(C)c3Nc3ccccc32)ccc1CNC(=O)N1CCC[C@H]1C(=S)N(C)C`, the IC50 result was “Not Active” against Vasopressin V1a receptor [1], 100 nM on Vasopressin V1a receptor [7], 5.9 µM on Vasopressin V1a receptor [14] and “Not Active” at Vasopressin V1b receptor [19]. Further, in data set [2], the pH-dependent lipophilicity (logD) was 2. Also, the outcome with Mus musculus [3], with Mus musculus [4], in the data set with Mus musculus [11] and with Mus musculus [15] was inactive. The results for the maximum response (Emax) (in data set [5]; on Vasopressin V2 receptor [10]; in data set [17]) were 96%, 97% and 96%, respectively. For the same molecule, the results for the Ki at Vasopressin V1a receptor [6], at Oxytocin receptor [9] and on Vasopressin V2 receptor [13] were 1250 nM, 226 nM and 1670 nM, respectively. In addition, the EC50 on Vasopressin V2 receptor [8] was 41 nM; on Vasopressin V1b receptor [16], “Not Active”; at Vasopressin V1b receptor [18] it was “Not Active”; on Oxytocin receptor [20], 25 nM; at Vasopressin V1a receptor [21], “Not Active”. The result in the data set on Mus musculus [12] was Active. In addition, the Activity result is on record as “Toxic” with Mus musculus [22], “Non-Toxic” in the data set with Mus musculus [23] and “Non-Toxic” in the data set with Mus musculus [24].

The record behind these values is ChEMBL document CHEMBL4196200 (J Med Chem, 2018).
